{"source": "patent US20070142396A1", "about": "“Treatment of pain with 1-[3-[4-(3-chlorophenyl)-1-piperazinyl]propyl]-5-methoxy-3,4-dihydro-2(1H)-quinolone or salt thereof” (Vela Pharmaceuticals, Inc., priority 2005, published 2007)", "assay_type_in_all_cases": "in vivo, rat", "key": {"[1]": {"system": "rats with spinal nerve ligature (Chung neuropathic pain model)", "test": "Chung spinal nerve ligation (L5 and L6) neuropathic pain model, tactile stimulation with electronic Von Frey probe (Example 2)", "excerpt": "(§1) The Chung neuropathic pain model (Kim and Chung, Pain, 50: 355-363, 1992), employs spinal nerve ligation (SNL) in a rat. Tight ligature of spinal nerves in a rat is associated with hyperalgesia, allodynia and spontaneous pain. Antihyperalgesics reduce these chronic signs of pain hypersensitivity. Thus, the Chung model permits testing of the antihyperalgesic activity of compounds in rats with neuropathic pain. The Chung model constitutes a model for peripheral neuropathic pain in humans, and was employed as follows.\n(§2) Male Rj: Wistar (Han) rats, weighing 264-369 g at the beginning of the experiment, were obtained from Elevage Janvier, 53940 Le Genest-Saint-Isle, France. The rats were acclimatized to laboratory conditions for at least 5 days before the surgery phase of the experiment. The rats were housed in groups of five in macrolon cages (41×25×14 cm) on wood litter (Litalabo—SPPS, 95100 Argenteuil, France) with free access to food (code 113—SAFE, 91360 Epinay-sur-Orge, France) and water until tested. The animal houses were maintained under artificial lighting (12 hours) between 7:00 AM and 7:00 PM in a controlled ambient temperature of 21±3° C., and with relative humidity maintained at 40-70%.\n(§3) Rats (264-369 g) were anesthetized with sodium pentobarbital (50 mg/kg i.p.), and an incision at the L4-S2 level was made to expose the left L5 and L6 spinal nerves. A ligature was tied tightly around each nerve. The wound was then sutured. The rats received an i.m. injection of 50,000 IU penicillin G and were allowed to recover. At least 2 weeks after the surgery, when the chronic state was fully installed, rats were submitted consecutively to tactile and thermal stimulation of both the non-lesioned and the lesioned hindpaws.\n(§4) Doses of OPC-14523 were prepared in stock solutions (weight per volume, W/V), then in dilutions (volume per volume, V/V), as appropriate. The compound was dispersed in 0.5% tragacanth in distilled water. Morphine was dissolved in physiological saline as a reference standard for treatment of pain. The solutions for the test and reference substances were prepared fresh on the day of the experiment.\n(§5) The vehicle, OPC-14523, and reference (morphine) compound were each administered in a volume of 5 ml/kg body weight. The doses of OPC-14523 were expressed in mg of substance per kg body weight and administered orally (p.o.). The vehicle control was also administered orally. The dose of morphine was expressed in mg of hydrochloride salt per kg body weight and administered i.p.\n(§6) Each animal was tested at 30 minutes, 1 hour, 2 hours and 4 hours after the administration of a substance. Testing occurred in the morning.\n(§7) To evaluate chronic drug administration and hypersensitivity induction, animals received a second substance treatment in the afternoon, after acute testing. The animals then received twice-daily substance treatment for an additional 9 days. To test for induction of hypersensitivity, the animals were tested, on the ninth day, 30 minutes before the first substance administration in the morning. The effect of chronic administration was tested on the tenth day 30 minutes, 1 hour, 2 hours and 4 hours after the administration of the substance in the morning.\n(§8) For tactile stimulation, the animal was placed under an inverted Plexiglas® box (17×11×14 cm) on a grid floor. The tip of an electronic Von Frey probe (Bioseb, Model 1610, Chaville, France) was applied with increasing pressure to the non-lesioned hindpaw or the lesioned hindpaw. The force required to induce paw withdrawal was automatically recorded. This procedure was carried out three times for each paw, and the mean force per paw was calculated to provide basic scores per animal.\nPrior to receiving drug treatment, all animals were submitted to tactile stimulation and assigned to treatment groups, matched on the basis of their pain response. Each treatment group consisted of eight rats. The testing was performed blind. […]"}, "[2]": {"system": "rats with spinal nerve ligature (Chung neuropathic pain model)", "test": "Chung neuropathic pain model, tactile stimulation, second experiment (Example 3)", "details": "acute, morphine 128 mg/kg p.o.; for change of force inducing paw withdrawal vs vehicle: lesioned paw", "procedure": "as §8\n(§9) The rats used in this experiment were the same rats used in Example 2. The materials and methods for this experiment were identical to those for Example 2 with the following exceptions: there was a 1-week washout between the two experiments, and the rats weighed 290-403 g at the start of this experiment. Prior to receiving drug treatment, all animals were submitted to tactile stimulation and assigned to treatment groups matched on the basis of their pain response. No account was taken of the treatment administered during the first experiment in assigning animals to treatment groups for this experiment.\n(§10) All of the substances were administered orally. Morphine, dissolved in distilled water, was administered at 128 mg/kg dose p.o. Rats were tested 30 minutes, 1 hour, 2 hours, and 4 hours after administration of the substances."}, "[3]": {"system": "rats with spinal nerve ligature (Chung neuropathic pain model)", "test": "Chung neuropathic pain model, cold allodynia on cold plate (Example 3)", "details": "morphine 128 mg/kg p.o.; for change of total number of paw withdrawal responses: cold plate", "excerpt": "as §9, §10\nBehavioral testing was carried out by measuring cold allodynia using an apparatus consisting of a cold plate maintained at 4±1° C. Rats were individually placed on the cold plate for a period of 5 minutes. The latency to the first paw withdrawal response and the number and total duration of withdrawal responses in 5 minutes were recorded for both the lesioned and the non-lesioned hindpaws."}, "[4]": {"system": "rats with spinal nerve ligature (Chung neuropathic pain model)", "test": "Chung spinal nerve ligation (L5 and L6) neuropathic pain model, thermal stimulation (Example 2)", "details": "for change of paw-withdrawal latency vs vehicle: morphine 16 mg/kg i.p.", "excerpt": "as §1, §2, §3, §4, §5, §6, §7\nAn apparatus (Ugo Basile, Product reference: 7371, Comerio, Italy) consisted of six individual Plexiglas® boxes (17×11×14 cm) placed upon an elevated glass floor. A rat was placed in the box and left free to habituate for 10 minutes. Then, a mobile infrared radiant source was focused under the non-lesioned and lesioned hindpaws. The paw-withdrawal latencies were automatically recorded. Paw withdrawal interrupts the reflected radiation and switches off the counter and the light source. In order to prevent tissue damage, the test was terminated after 45 seconds if no reaction was noted.\nPrior to receiving drug treatment, all animals were submitted to tactile stimulation and assigned to treatment groups, matched on the basis of their pain response. […]"}, "[5]": {"details": "hypersensitivity test after 8 days of twice daily administration, morphine"}}, "data": [{"smiles": "CN1CC[C@]23c4c5ccc(O)c4O[C@H]2[C@@H](O)C=C[C@H]3[C@H]1C5", "note": "[Morphine, morphine, reference compound]", "values": [{"measurement": "change of force inducing paw withdrawal vs vehicle", "setting": "[1]; acute, morphine 16 mg/kg i.p., lesioned paw, 30 minutes", "value": "+206%"}, {"measurement": "change of force inducing paw withdrawal vs vehicle", "setting": "[1]; acute, morphine 16 mg/kg i.p., lesioned paw, 1 hour", "value": "+124%"}, {"measurement": "effect on force inducing paw withdrawal", "setting": "[1]; acute, morphine 16 mg/kg i.p., lesioned paw, 2 hours", "value": "tended to increase"}, {"measurement": "effect on force inducing paw withdrawal", "setting": "[1]; acute, morphine 16 mg/kg i.p., non-lesioned paw", "value": "no effects"}, {"measurement": "change of force inducing paw withdrawal vs vehicle", "setting": "[1]; chronic, day 10, morphine, lesioned paw, 30 minutes, p<0.01", "value": "+86%"}, {"measurement": "change of force inducing paw withdrawal vs vehicle", "setting": "[1]; chronic, day 10, morphine, lesioned paw, 1 hour, p<0.001", "value": "+223%"}, {"measurement": "change of force inducing paw withdrawal vs vehicle", "setting": "[1]; chronic, day 10, morphine, lesioned paw, 2 hours, p=0.09", "value": "−50", "unit": "%"}, {"measurement": "effect on force inducing paw withdrawal", "setting": "[1]; chronic, day 10, morphine, non-lesioned paw", "value": "weak, variable effects"}, {"measurement": "Force Inducing Paw Withdrawal (g) Lesioned Paw", "setting": "[1]; [5]", "value": "15.1 (NS) g"}, {"measurement": "Force Inducing Paw Withdrawal (g) Non-lesioned Paw", "setting": "[1]; [5]", "value": "73.7 (NS) g"}, {"measurement": "effect on force inducing paw withdrawal vs vehicle control", "setting": "[1]; hypersensitivity test, repeated treatment with morphine, lesioned or non-lesioned paw", "value": "no significant effects"}, {"measurement": "change of force inducing paw withdrawal vs vehicle", "setting": "[2]; 30 minutes, p<0.05", "value": "+137%"}, {"measurement": "change of force inducing paw withdrawal vs vehicle", "setting": "[2]; 1 hour, p<0.01", "value": "+198%"}, {"measurement": "change of force inducing paw withdrawal vs vehicle", "setting": "[2]; 2 hours, p=0.05", "value": "+168%"}, {"measurement": "effect on force inducing paw withdrawal", "setting": "[2]; non-lesioned paw", "value": "no effects"}, {"measurement": "effect on paw-withdrawal latency of the first withdrawal", "setting": "[3]; cold plate 4°C, not statistically significant", "value": "tended to increase"}, {"measurement": "change of total number of paw withdrawal responses", "setting": "[3]; 30 minutes, p<0.001", "value": "−61", "unit": "%"}, {"measurement": "change of total number of paw withdrawal responses", "setting": "[3]; 1 hour, p<0.05", "value": "−65", "unit": "%"}, {"measurement": "change of total number of paw withdrawal responses", "setting": "[3]; 2 hours, p<0.01", "value": "−51", "unit": "%"}, {"measurement": "change of total number of paw withdrawal responses", "setting": "[3]; 4 hours, p<0.01", "value": "−56", "unit": "%"}, {"measurement": "change of paw-withdrawal latency vs vehicle", "setting": "[4]; acute, lesioned paw, 30 minutes", "value": "+132%"}, {"measurement": "change of paw-withdrawal latency vs vehicle", "setting": "[4]; acute, lesioned paw, 1 hour", "value": "+121%"}, {"measurement": "change of paw-withdrawal latency vs vehicle", "setting": "[4]; acute, lesioned paw, 4 hours", "value": "+204%"}, {"measurement": "change of paw-withdrawal latency vs vehicle", "setting": "[4]; acute, non-lesioned paw, 30 minutes, p<0.05", "value": "+15%"}, {"measurement": "change of paw-withdrawal latency vs vehicle", "setting": "[4]; chronic, lesioned paw, 30 minutes, p<0.05", "value": "+108%"}, {"measurement": "change of paw-withdrawal latency vs vehicle", "setting": "[4]; chronic, lesioned paw, 1 hour, p<0.05", "value": 93, "unit": "%"}, {"measurement": "change of paw-withdrawal latency vs vehicle", "setting": "[4]; chronic, non-lesioned paw, 2 hours, p<0.05", "value": "−24", "unit": "%"}, {"measurement": "change of paw-withdrawal latency vs vehicle", "setting": "[4]; chronic, non-lesioned paw, 4 hours, p<0.05", "value": "−23", "unit": "%"}, {"measurement": "Paw Withdrawal Latency (s) Lesioned Paw", "setting": "[4]; [5]", "value": "11.7 (NS) s"}, {"measurement": "Paw Withdrawal Latency (s) Non-lesioned Paw", "setting": "[4]; [5]", "value": "34.5 (NS) s"}]}]}
